In publication PMC3553014, “Albumin Stimulates the Activity of the Human UDP-Glucuronosyltransferases 1A7, 1A8, 1A10, 2A1 and 2B15, but the Effects Are Enzyme and Substrate Dependent” (PLoS ONE, 2013):
“And” between values parts separate entries of the source, which are not always exact repeats. Identical values can stand only once. Like-named read-outs stand apart in the source and are kept apart here. Blank lines part the entries; values can stand above or below the molecule they belong to.

Experiments:
UGT2B17 = target: T1, UGT2B17 (Homo sapiens, UniProt O75795)
T1 sequence (O75795 24-530): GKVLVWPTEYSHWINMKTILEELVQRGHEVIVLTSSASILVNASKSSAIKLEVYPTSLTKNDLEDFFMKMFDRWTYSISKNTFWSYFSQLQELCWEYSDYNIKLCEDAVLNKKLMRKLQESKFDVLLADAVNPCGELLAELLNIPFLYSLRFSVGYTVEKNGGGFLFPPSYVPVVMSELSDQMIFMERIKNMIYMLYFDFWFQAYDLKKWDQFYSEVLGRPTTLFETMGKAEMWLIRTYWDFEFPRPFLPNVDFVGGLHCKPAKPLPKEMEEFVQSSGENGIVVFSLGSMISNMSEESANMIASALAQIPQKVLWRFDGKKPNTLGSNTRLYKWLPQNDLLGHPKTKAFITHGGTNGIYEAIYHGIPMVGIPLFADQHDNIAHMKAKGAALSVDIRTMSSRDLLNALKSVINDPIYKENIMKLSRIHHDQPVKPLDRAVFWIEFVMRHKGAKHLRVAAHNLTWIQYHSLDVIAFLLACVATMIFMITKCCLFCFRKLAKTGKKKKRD
Experimental: (§1) Recombinant human UGTs 1A1, 1A6, 1A7, 1A8, 1A10, 2A1, 2B4, 2B7 and 2B17 were expressed as His-tagged proteins in baculovirus-infected insect cells as described previously [14]. […] Protein concentrations were determined by the BCA method (Pierce Biotechnology, Rockford, IL, USA).
(§2) The protein concentrations and incubation times for the enzyme kinetic assays were selected based on preliminary assays in order to ensure that the product formation was within the linear range with respect to both protein concentration and time, and that the substrate consumption during the reaction was less than 10%. The initial velocity measurements were performed in either duplicates or triplicates and they are presented as the average values and S.E.
(§3) The glucuronidation rates by recombinant enzymes are reported as “expression normalized” values. The relative expression level of each recombinant UGT that was produced in our laboratory was determined using immunoblotting, as previously described [14], [19]. The dot blot assays were performed in triplicate and the average value was used for normalization. […] The “expression normalized” glucuronidation rates were calculated by dividing the measured glucuronidation rates with relative expression level of the each given recombinant UGT.
(§4) In assays containing BSA, the total concentrations of substrate were corrected according to the measured drug binding to BSA, under the specific conditions of each glucuronidation assay. The statistical significance of the difference in enzyme kinetics parameters upon BSA addition was tested with extra sum-of-squares F-test (included in the GraphPad software, [20]. The initial glucuronidation rates were fitted to the following equations:

UGT1A1 = target: T2, UGT1A1 (Homo sapiens, UniProt P22309); test: UGT1A1-catalyzed glucuronidation, enzyme kinetics
T2 sequence (P22309 26-533): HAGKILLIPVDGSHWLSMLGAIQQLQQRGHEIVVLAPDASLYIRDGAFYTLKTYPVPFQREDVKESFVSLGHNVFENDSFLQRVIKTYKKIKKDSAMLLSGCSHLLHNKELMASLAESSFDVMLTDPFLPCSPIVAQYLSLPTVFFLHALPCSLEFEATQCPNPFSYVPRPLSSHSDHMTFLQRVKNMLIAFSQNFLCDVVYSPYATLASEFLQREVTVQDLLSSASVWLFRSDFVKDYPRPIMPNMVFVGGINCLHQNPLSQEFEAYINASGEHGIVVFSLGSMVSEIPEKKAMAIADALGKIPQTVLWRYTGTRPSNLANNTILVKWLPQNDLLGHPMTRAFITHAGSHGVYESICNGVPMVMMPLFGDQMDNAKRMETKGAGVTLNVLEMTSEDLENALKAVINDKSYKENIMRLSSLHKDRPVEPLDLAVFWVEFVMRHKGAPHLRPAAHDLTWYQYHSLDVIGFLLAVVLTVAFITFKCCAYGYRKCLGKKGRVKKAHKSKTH
Experimental: as §1, §2, §3, §4

UGT1A6 = target: T3, UGT1A6 (Homo sapiens, UniProt P19224); test: UGT1A6-catalyzed glucuronidation, enzyme kinetics
T3 sequence (P19224 27-532): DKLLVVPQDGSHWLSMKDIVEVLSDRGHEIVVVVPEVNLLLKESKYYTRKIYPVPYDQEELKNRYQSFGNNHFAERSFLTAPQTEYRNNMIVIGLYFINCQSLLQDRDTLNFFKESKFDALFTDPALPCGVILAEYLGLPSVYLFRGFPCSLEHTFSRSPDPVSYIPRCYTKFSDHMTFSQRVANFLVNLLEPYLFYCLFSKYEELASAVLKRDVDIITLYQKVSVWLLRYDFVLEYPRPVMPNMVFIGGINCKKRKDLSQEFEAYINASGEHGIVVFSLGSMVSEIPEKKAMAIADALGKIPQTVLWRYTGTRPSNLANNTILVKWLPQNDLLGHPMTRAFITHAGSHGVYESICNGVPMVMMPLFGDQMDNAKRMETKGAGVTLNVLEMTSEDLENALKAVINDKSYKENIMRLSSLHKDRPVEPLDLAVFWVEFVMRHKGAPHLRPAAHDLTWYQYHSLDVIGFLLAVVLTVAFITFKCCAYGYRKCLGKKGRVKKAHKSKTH
Experimental: as §1, §2, §3, §4

UGT1A8 = target: T4, UGT1A8 (Homo sapiens, UniProt Q9HAW9); test: UGT1A8-catalyzed glucuronidation, enzyme kinetics
T4 sequence (Q9HAW9 26-530): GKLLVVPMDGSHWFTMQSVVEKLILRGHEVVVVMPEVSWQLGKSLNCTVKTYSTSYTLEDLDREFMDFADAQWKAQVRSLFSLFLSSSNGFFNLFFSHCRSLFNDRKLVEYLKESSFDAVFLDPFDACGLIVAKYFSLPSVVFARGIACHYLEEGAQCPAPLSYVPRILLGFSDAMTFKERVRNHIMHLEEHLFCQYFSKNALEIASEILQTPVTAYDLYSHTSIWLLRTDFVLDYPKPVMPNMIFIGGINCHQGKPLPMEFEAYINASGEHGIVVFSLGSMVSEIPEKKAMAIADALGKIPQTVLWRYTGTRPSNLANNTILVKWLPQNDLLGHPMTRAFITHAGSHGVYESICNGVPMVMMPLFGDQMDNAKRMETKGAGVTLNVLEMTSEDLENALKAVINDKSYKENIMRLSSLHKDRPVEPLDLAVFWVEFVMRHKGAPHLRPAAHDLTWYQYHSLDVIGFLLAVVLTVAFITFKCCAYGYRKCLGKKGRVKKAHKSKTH
Experimental: as §1, §2, §3
In assays containing BSA, the total concentrations of substrate were corrected according to the measured drug binding to BSA, under the specific conditions of each glucuronidation assay.

BSA [1] = target: T5, BSA (Bos taurus, UniProt P02769); test: in vitro; conditions: bovine
BSA [2] = target: T5, BSA; set-up: purchased Sigma-Aldrich (St. Louis, MO, USA); conditions: 2% BSA; 25 (Walsky et al. 2012); cited from earlier work
[3] = Drug binding to control insect cell membranes by RED; conditions: 0.2 mg/mL total protein in the membrane
not read [4] = substrate: Cc1cc(=O)oc2cc(O)ccc12; test: not read; conditions: other: No BSA, pH 7.4
Experimental: as §1, §2, §3, §4

not read [5] = substrate: Oc1ccc2cc[nH]c2c1; test: not read; conditions: other: No BSA, pH 7.4
Experimental: as §1, §2, §3, §4

T5 sequence (P02769 25-607): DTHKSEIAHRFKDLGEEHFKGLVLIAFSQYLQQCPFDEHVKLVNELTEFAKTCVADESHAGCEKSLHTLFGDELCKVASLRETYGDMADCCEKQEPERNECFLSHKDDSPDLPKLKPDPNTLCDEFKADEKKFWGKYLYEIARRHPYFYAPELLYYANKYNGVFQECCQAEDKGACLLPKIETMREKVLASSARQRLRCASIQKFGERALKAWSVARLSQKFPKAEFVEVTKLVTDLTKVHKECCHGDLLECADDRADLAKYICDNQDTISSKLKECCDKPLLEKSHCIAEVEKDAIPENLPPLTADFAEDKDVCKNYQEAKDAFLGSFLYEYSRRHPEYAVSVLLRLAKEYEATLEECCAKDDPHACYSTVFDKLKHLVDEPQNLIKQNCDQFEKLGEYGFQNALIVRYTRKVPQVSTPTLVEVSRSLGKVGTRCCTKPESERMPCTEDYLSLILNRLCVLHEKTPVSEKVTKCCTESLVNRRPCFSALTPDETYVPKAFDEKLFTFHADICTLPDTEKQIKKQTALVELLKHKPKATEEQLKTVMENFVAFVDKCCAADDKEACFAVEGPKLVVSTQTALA

Molecule: Oc1cccc2ccccc12 [1-Naphthol, 1-naphthol]
- K m or S 50 ± S.E. (UGT2B17): 540±26(485–595) µM and 484±27(427–541) µM
- V max ± S.E. (UGT2B17): 0.28±0.01(0.26–0.31) nmol•min^–1•mg^–1
- K m or S 50 ± S.E. (UGT1A1): 101±11(78–123) µM and 81.6±5.1(71.0–92.1) µM
- V max ± S.E. (UGT1A1): 0.11±0.01(0.10–0.13) nmol•min^–1•mg^–1
- K m or S 50 ± S.E. (UGT1A6; 0.1% BSA, substrate concentration corrected for binding to BSA): 5.25±0.23 ^***(4.78–5.72) µM
- K m or S 50 ± S.E. (UGT1A6; No BSA): 8.07±0.48(7.08–9.06) µM
- V max ± S.E. (UGT1A6; No BSA, expression level-normalized): 6.7±0.1(6.47–6.94) nmol•min^–1•mg^–1
- K m or S 50 ± S.E. (UGT1A8): 91.6±6.6(78.0–105.3) µM and 105±16(73–137) µM
- V max ± S.E. (UGT1A8): 2.5±0.1(2.3–2.7) nmol•min^–1•mg^–1

- fraction unbound at 8 h (BSA [1]): 0.48 ± 0.01
- K m or S 50 ± S.E. (UGT1A1): 7.84±1.62(4.48–11.21) µM
- K m or S 50 ± S.E. (UGT1A1; 0.1% BSA, substrate concentration corrected for binding to BSA, estradiols: 3-glucuronide formation): 9.06±1.14(6.70–11.42) µM
- K m or S 50 ± S.E. (UGT1A8; 0.1% BSA, substrate concentration corrected for binding to BSA, 17β-estradiol: 3-glucuronide formation): 4.70±0.62 ^**(3.42–5.99) µM
- binding to control insect cell membrane [3]: negligible
Molecule: C[C@]12CC[C@@H]3c4ccc(O)cc4CC[C@H]3[C@@H]1CC[C@@H]2O [17β-Estradiol, 17β-estradiol]
- V max ± S.E. (UGT2B17): 0.013±0.0002(0.0125–0.0132) nmol•min^–1•mg^–1
- V max ± S.E. (UGT1A8): 0.020±0.0003(0.019–0.021) nmol•min^–1•mg^–1
- f u (unbound fraction) (BSA [2]): 0.04

B1: UGT2A1 (Homo sapiens) (protein)
chain: GNVLIWPMEGSHWLNVKIIIDELIKKEHNVTVLVASGALFITPTSNPSLTFEIYKVPFGKERIEGVIKDFVLTWLENRPSPSTIWRFYQEMAKVIKDFHMVSQEICDGVLKNQQLMAKLKKSKFEVLVSDPVFPCGDIVALKLGIPFMYSLRFSPASTVEKHCGKVPYPPSYVPAVLSELTDQMSFTDRIRNFISYHLQDYMFETLWKSWDSYYSKALGGLLLCCPGWSAVADLGSLQPLLPGFKRFSRLSLHCSWDYRLPAGRPTTLCETMGKAEIWLIRTYWDFEFPRPYLPNFEFVGGLHCKPAKPLPKVLWRYKGKKPATLGNNTQLFDWIPQNDLLGHPKTKAFITHGGTNGIYEAIYHGVPMVGVPMFADQPDNIAHMKAKGAAVEVNLNTMTSVDLLSALRTVINEPSYKENAMRLSRIHHDQPVKPLDRAVFWIEFVMRHKGAKHLRVAAHDLTWFQYHSLDVIGFLLVCVTTAIFLVIQCCLFSCQKFGKIGKKKKRE
- K0.5 (not read [4]): 48.1±4.8(38.2–57.9) µM
- Vmax (not read [4]): 0.0021 µmol/min/mg
- K0.5 (not read [5]): 1474±121(1223–1724) µM
- Vmax (not read [5]): 0.00079 µmol/min/mg
